Measurements published in PMC12389355, “Physiologically Based Pharmacokinetic Modeling to Assess Perpetrator and Victim Cytochrome P450 2C Induction Risk” (Pharmaceutics, 2025).
Read-outs that look alike come from different tables or passages of the source.

Columns and labels:
[1] = test system: CYP2C19; settings: cited from earlier work
[2] = test system: CYP2B6; settings: cited from earlier work
[3] = test system: CYP1A2; settings: cited from earlier work
[4] = test system: CYP2C9; test: in vitro; settings: human
[5] = test system: CYP2C19; test: in vitro; settings: human
[6] = test system: CYP2B6; test: in vitro; settings: human
[7] = test system: CYP2C9; test: in vitro; settings: human, probe diclofenac (4-hydroxy diclofenac formation)
[8] = test system: CYP2C8; test: CYP2C8 mRNA induction in HTC model
[9] = test system: CYP2C9; test: CYP2C9 mRNA induction in HTC model
[10] = test system: CYP2B6; test: CYP2B6 mRNA induction in HTC model
[11] = test system: CYP2C19; test: CYP2C19 mRNA induction in HTC model
[12] = test system: CYP3A4; test: CYP3A4 mRNA induction in human hepatocyte triculture (HTC) model
[13] = test system: CYP3A4; test: CYP3A4 enzyme activity induction in HTC model (midazolam 1-hydroxylation)
[14] = test system: CYP2C9; test: CYP2C9 enzyme activity induction in HTC model (diclofenac 4-hydroxylation)
[15] = test system: CYP2C19; test: CYP2C19 enzyme activity induction in HTC model (omeprazole 5-hydroxylation)
[16] = cited from earlier work
[17] = test system: CYP3A4; settings: cited from earlier work; for fm CYP3A4: victim drug, References of Tables 3 and 4 ([27]-[44])
[18] = test system: CYP2C8; test: in vitro; settings: human
[19] = test system: CYP2C8; parameters: method as in References column of Tables 3 and 4 ([27]-[44]); settings: victim drug; References of Tables 3 and 4 ([27]-[44]); cited from earlier work
[20] = test system: CYP3A4; test: in vitro; settings: human
[21] = test system: CYP2B6; parameters: method as in PMID 29802934; settings: PHH spheroids; cited from earlier work
[22] = test system: CYP2C8; parameters: method as in PMID 29802934; settings: PHH spheroids; cited from earlier work
[23] = test system: CYP2C19; parameters: method as in PMID 26658225; settings: PHH spheroids, observed in two of the three donors; cited from earlier work
[24] = test system: CYP2C9; settings: cited from earlier work
[25] = test system: Other CYPs; settings: victim drug; ref [35],[36]; cited from earlier work
[26] = Donor 1, nominal concentrations, 96 h
[27] = victim drug after administration with rifampicin, References of Table 4 ([27]-[43]), DIDB
[28] = victim drug, References of Tables 3 and 4 ([27]-[44])

COC(=O)[C@H](c1ccccc1Cl)N1CCc2sccc2C1 [clopidogrel]
fm via CYP2C19 [1]: 0.19
fm via CYP2B6 [2]: 0.06
fm via CYP1A2 [3]: 0.02

NC(=O)N1c2ccccc2C=Cc2ccccc21 [Carbamazepine, carbamazepine]
EC50 at 96 h [4]: 9860 nM
EC50 at 96 h [5]: 124000 nM
EC50 at 96 h [6]: 46900 nM
EC50 at 96 h [7]: 41400 nM
EC50 ([8]; Donor 1): 35600 nM
EC50 ([8]; Donor 2): 20000 nM
EC50 ([8]; Donor 3): 40200 nM
EC50 ([10]; Donor 2): 41900 nM
EC50 ([10]; Donor 3): 59000 nM
EC50 ([11]; Donor 2): 186000 nM
EC50 ([11]; Donor 3): 182000 nM
EC50 ([15]; Donor 1): 8140 nM
EC50 ([15]; Donor 2): 2050 nM
EC50 ([15]; Donor 3): 18000 nM

COc1ccc2[nH]c([S+]([O-])Cc3ncc(C)c(OC)c3C)nc2c1 (centres unmarked) [Omeprazole, omeprazole]
% AUC Reduction (Clinically Observed) [16, 27]: 86.1%
fm CYP3A4 [17]: 0.32
fm CYP2C19 [1, 28]: 0.68

CNC(=O)c1ccc(N2C(=S)N(c3cnc(C#N)c(C(F)(F)F)c3)C(=O)C23CCC3)cc1F [Apalutamide, apalutamide]
EC50 at 96 h [18]: 1680 nM
EC50 at 96 h [4]: 794 nM
EC50 at 96 h [5]: 4010 nM
EC50 at 96 h [6]: 4440 nM
EC50 at 96 h [7]: 13100 nM
EC50 ([8]; Donor 2): 1220 nM
EC50 ([8]; Donor 3): 1260 nM
EC50 ([9]; Donor 2): 419 nM
EC50 ([9]; Donor 3): 474 nM
EC50 ([10]; Donor 2): 2980 nM
EC50 ([10]; Donor 3): 2960 nM
EC50 ([11]; Donor 2): 5220 nM
EC50 ([11]; Donor 3): 6040 nM
EC50 ([14]; Donor 3): 23700 nM
EC50 ([15]; Donor 1): 455 nM
EC50 ([15]; Donor 2): 1030 nM
EC50 ([15]; Donor 3): 865 nM

COc1ccc(Cl)cc1C(=O)NCCc1ccc(S(=O)(=O)NC(=O)NC2CCCCC2)cc1 [Glyburide, glyburide]
% AUC Reduction (Clinically Observed) [16, 27]: 38.9%

CCc1ccc(CCOc2ccc(CC3SC(=O)NC3=O)cc2)nc1 (centres unmarked) [Pioglitazone, pioglitazone]
fm CYP2C8 [19]: 0.56
% AUC Reduction (Clinically Observed) [16, 27]: 56.3%
fm CYP3A4 [17]: 0.37

O=C1Nc2ccc(Cl)cc2[C@@](C#CC2CC2)(C(F)(F)F)O1 [Efavirenz, efavirenz]
EC50 at 96 h [4]: 455 nM
EC50 at 96 h [7]: 4290 nM
EC50 ([8]; Donor 1): 4480 nM
EC50 ([8]; Donor 2): 1970 nM
EC50 ([8]; Donor 3): 2950 nM
EC50 ([11]; Donor 1): 8300 nM
EC50 ([11]; Donor 3): 2910 nM
EC50 ([15]; Donor 1): 946 nM
EC50 ([15]; Donor 2): 297 nM
EC50 ([15]; Donor 3): 2480 nM

CO[C@H]1/C=C/O[C@@]2(C)Oc3c(C)c(O)c4c(O)c(c(/C=N/N5CCN(C)CC5)c(O)c4c3C2=O)NC(=O)/C(C)=C\C=C\[C@H](C)[C@H](O)[C@@H](C)[C@@H](O)[C@@H](C)[C@H](OC(C)=O)[C@@H]1C [Rifampicin, rifampicin]
induction of CYP2B6 mRNA levels [21]: 9 fold
induction of CYP2C8 mRNA levels [22]: 12 fold
CYP2C19 induction [23]: 8 fold
EC50 at 96 h ([18]; both): 260 to 504 nM
EC50 at 96 h ([5]; both): 803 to 1640 nM
EC50 at 96 h ([6]; both): 399 to 530 nM
EC50 at 96 h [6]: 415 nM
EC50 ([8]; Donor 2): 260 nM
EC50 ([8]; Donor 3): 307 nM
EC50 ([10]; Donor 2): 530 nM
EC50 ([10]; Donor 3): 399 nM
EC50 ([11]; Donor 1): 1640 nM
EC50 ([11]; Donor 2): 803 nM
EC50 ([11]; Donor 3): 1470 nM

CC(NC(C)(C)C)C(=O)c1cccc(Cl)c1 (centres unmarked) [Bupropion, bupropion]
% AUC Reduction (Clinically Observed) [16, 27]: 67.2%

CC(=O)C[C@@H](c1ccccc1)c1c(O)c2ccccc2oc1=O [S-warfarin]
fm via CYP3A4 [17]: 0.05
fm via CYP2C9 [24]: 0.64
fm via CYP2B6 [2]: 0.12

CC(=O)CC(c1ccccc1)c1c(O)c2ccccc2oc1=O (centres unmarked) [Warfarin, warfarin]
fm CYP2C9 [24, 28]: 0.64

CCCCNC(=O)NS(=O)(=O)c1ccc(C)cc1 [Tolbutamide, tolbutamide]
fm Other CYPs [25]: 0.15
% AUC Reduction (Clinically Observed) [16, 27]: 63.5%

Cc1ncc2n1-c1ccc(Cl)cc1C(c1ccccc1F)=NC2 [Midazolam, midazolam]
% AUC Reduction (Clinically Observed) ([16]; in vivo): 94.7%

CCOc1cc(CC(=O)N[C@@H](CC(C)C)c2ccccc2N2CCCCC2)ccc1C(=O)O [Repaglinide, repaglinide]
fm CYP2C8 [19]: 0.26
% AUC Reduction (Clinically Observed) [16, 27]: 57.5%
fm CYP3A4 [17]: 0.74
